± gives the expanded uncertainty stated by the source.
Assay: wn = mass fraction of the nth substance listed
Conditions: Gas, Burnett expansion method

FCC(F)(F)F [1,1,1,2-tetrafluoroethane] + CCC
Conditions | mass density [kg/m3]
304.25 K, 324.7 kPa, w2 = 0.45 | 8.75837 ± 0.59
304.25 K, 423.5 kPa, w2 = 0.45 | 11.6666 ± 0.61
304.25 K, 550.2 kPa, w2 = 0.45 | 15.5404 ± 0.65
304.25 K, 710 kPa, w2 = 0.45 | 20.7007 ± 0.7
306.96 K, 235.2 kPa, w2 = 0.65 | 5.2834 ± 0.47
306.96 K, 309.8 kPa, w2 = 0.65 | 7.0255 ± 0.48
306.96 K, 406.3 kPa, w2 = 0.65 | 9.3418 ± 0.5
306.96 K, 530 kPa, w2 = 0.65 | 12.4219 ± 0.52
306.96 K, 1095.4 kPa, w2 = 0.55 | 36.0371 ± 0.58
306.97 K, 260.5 kPa, w2 = 0.55 | 6.5188 ± 0.55
306.97 K, 673.4 kPa, w2 = 0.55 | 20.3802 ± 0.73
306.97 K, 686.8 kPa, w2 = 0.65 | 16.5173 ± 0.56
306.97 K, 865 kPa, w2 = 0.55 | 27.1004 ± 0.8
306.97 K, 880.8 kPa, w2 = 0.65 | 21.9632 ± 0.62
306.98 K, 343.1 kPa, w2 = 0.55 | 8.6681 ± 0.53
306.98 K, 449.3 kPa, w2 = 0.55 | 11.5262 ± 0.69
306.98 K, 519.6 kPa, w2 = 0.55 | 15.3262 ± 0.82
307 K, 1113.5 kPa, w2 = 0.65 | 29.2029 ± 0.67
307.04 K, 1304.3 kPa, w2 = 0.6 | 37.3883 ± 0.78
307.05 K, 823.4 kPa, w2 = 0.6 | 21.1446 ± 0.65
307.06 K, 286.9 kPa, w2 = 0.6 | 6.763 ± 0.49
307.06 K, 376.9 kPa, w2 = 0.6 | 8.993 ± 0.51
307.06 K, 492.8 kPa, w2 = 0.6 | 11.9584 ± 0.55
307.06 K, 640 kPa, w2 = 0.6 | 15.901 ± 0.59
307.06 K, 1046.1 kPa, w2 = 0.6 | 28.116 ± 0.73
308.12 K, 266.9 kPa, w2 = 0.5 | 6.72365 ± 0.55
308.12 K, 346.4 kPa, w2 = 0.5 | 8.95632 ± 0.58
308.12 K, 447.5 kPa, w2 = 0.5 | 11.9301 ± 0.61
308.12 K, 577.6 kPa, w2 = 0.5 | 15.8911 ± 0.63
308.12 K, 742.5 kPa, w2 = 0.5 | 21.1679 ± 0.68
308.13 K, 944.9 kPa, w2 = 0.5 | 28.196 ± 0.75
308.14 K, 1188.3 kPa, w2 = 0.5 | 37.5563 ± 0.73
308.15 K, 263.5 kPa, w2 = 0.45 | 6.89941 ± 0.55
308.2 K, 1234.2 kPa, w2 = 0.45 | 38.5343 ± 0.88
308.21 K, 980.9 kPa, w2 = 0.45 | 28.9282 ± 0.75
308.22 K, 346.6 kPa, w2 = 0.45 | 9.18817 ± 0.56
308.22 K, 454.6 kPa, w2 = 0.45 | 12.2393 ± 0.58
308.22 K, 592.6 kPa, w2 = 0.45 | 16.3032 ± 0.62
308.22 K, 766.7 kPa, w2 = 0.45 | 21.7165 ± 0.67
308.23 K, 960.1 kPa, w2 = 0.4 | 29.795 ± 0.8
308.24 K, 751.6 kPa, w2 = 0.4 | 22.3672 ± 0.71
308.24 K, 1208.1 kPa, w2 = 0.4 | 39.6876 ± 0.86
308.25 K, 447.1 kPa, w2 = 0.4 | 12.6056 ± 0.62
308.25 K, 581.8 kPa, w2 = 0.4 | 16.7913 ± 0.66
308.26 K, 197.5 kPa, w2 = 0.4 | 5.33332 ± 0.57
308.26 K, 260.1 kPa, w2 = 0.4 | 7.10429 ± 0.58
308.26 K, 341.6 kPa, w2 = 0.4 | 9.46322 ± 0.59
311.01 K, 747.3 kPa, w2 = 0.65 | 17.8403 ± 0.56
311.01 K, 956.7 kPa, w2 = 0.65 | 23.7227 ± 0.63
311.01 K, 1206.7 kPa, w2 = 0.65 | 31.545 ± 0.68
311.02 K, 256.8 kPa, w2 = 0.65 | 5.8063 ± 0.44
311.02 K, 338 kPa, w2 = 0.65 | 7.5979 ± 0.46
311.02 K, 383.5 kPa, w2 = 0.55 | 9.3582 ± 0.53
311.02 K, 443.1 kPa, w2 = 0.65 | 10.0895 ± 0.49
311.02 K, 500.4 kPa, w2 = 0.55 | 12.444 ± 0.55
311.02 K, 577.7 kPa, w2 = 0.65 | 13.4164 ± 0.52
311.02 K, 837.9 kPa, w2 = 0.55 | 22.003 ± 0.64
311.02 K, 1067.2 kPa, w2 = 0.55 | 29.258 ± 0.72
311.02 K, 1334.9 kPa, w2 = 0.55 | 38.9056 ± 0.82
311.03 K, 650.6 kPa, w2 = 0.55 | 16.547 ± 0.58
311.06 K, 1343.8 kPa, w2 = 0.6 | 37.8297 ± 0.76
311.07 K, 294.6 kPa, w2 = 0.6 | 6.8432 ± 0.49
311.07 K, 386.9 kPa, w2 = 0.6 | 9.1 ± 0.5
311.07 K, 505.8 kPa, w2 = 0.6 | 12.1 ± 0.53
311.07 K, 657.2 kPa, w2 = 0.6 | 16.0896 ± 0.56
311.07 K, 846.4 kPa, w2 = 0.6 | 21.3948 ± 0.62
311.07 K, 1076.1 kPa, w2 = 0.6 | 28.4489 ± 0.7
312.09 K, 1147.3 kPa, w2 = 0.4 | 36.0778 ± 0.85
312.09 K, 1427.9 kPa, w2 = 0.4 | 48.057 ± 0.94
312.1 K, 240.2 kPa, w2 = 0.4 | 6.45834 ± 0.57
312.1 K, 415.1 kPa, w2 = 0.4 | 11.4592 ± 0.6
312.1 K, 542.2 kPa, w2 = 0.4 | 15.2643 ± 0.63
312.1 K, 703.7 kPa, w2 = 0.4 | 20.3326 ± 0.67
312.1 K, 904.5 kPa, w2 = 0.4 | 27.0838 ± 0.74
312.11 K, 316.2 kPa, w2 = 0.4 | 8.60266 ± 0.58
312.14 K, 1384.5 kPa, w2 = 0.45 | 44.9611 ± 0.88
312.16 K, 1108.9 kPa, w2 = 0.45 | 33.7517 ± 0.82
312.17 K, 679.1 kPa, w2 = 0.45 | 19.022 ± 0.65
312.17 K, 873 kPa, w2 = 0.45 | 25.3381 ± 0.72
312.18 K, 403.4 kPa, w2 = 0.45 | 10.7201 ± 0.59
312.18 K, 524.7 kPa, w2 = 0.45 | 14.2797 ± 0.61
312.19 K, 309.2 kPa, w2 = 0.45 | 8.04778 ± 0.56
312.23 K, 1062.8 kPa, w2 = 0.5 | 30.8635 ± 0.77
312.24 K, 293.9 kPa, w2 = 0.5 | 7.35936 ± 0.53
312.24 K, 386.2 kPa, w2 = 0.5 | 9.80302 ± 0.55
312.24 K, 650.6 kPa, w2 = 0.5 | 17.3937 ± 0.63
312.24 K, 835.8 kPa, w2 = 0.5 | 23.1694 ± 0.68
312.24 K, 1330.8 kPa, w2 = 0.5 | 41.1106 ± 0.81
312.25 K, 502.5 kPa, w2 = 0.5 | 13.0579 ± 0.59
315.01 K, 615.4 kPa, w2 = 0.65 | 14.1721 ± 0.52
315.01 K, 795.5 kPa, w2 = 0.65 | 18.8451 ± 0.56
315.01 K, 1017.2 kPa, w2 = 0.65 | 25.0585 ± 0.63
315.01 K, 1280.7 kPa, w2 = 0.65 | 33.3212 ± 0.68
315.02 K, 274.4 kPa, w2 = 0.65 | 6.0676 ± 0.45
315.02 K, 360.8 kPa, w2 = 0.65 | 8.015 ± 0.47
315.02 K, 472.6 kPa, w2 = 0.65 | 10.6578 ± 0.49
315.06 K, 855 kPa, w2 = 0.55 | 22.0047 ± 0.62
315.06 K, 1090.2 kPa, w2 = 0.55 | 29.2605 ± 0.7
315.06 K, 1366.4 kPa, w2 = 0.55 | 38.9077 ± 0.77
315.07 K, 509.9 kPa, w2 = 0.55 | 12.4444 ± 0.54
315.07 K, 663.2 kPa, w2 = 0.55 | 16.5479 ± 0.57
315.08 K, 389.6 kPa, w2 = 0.55 | 9.3584 ± 0.51
315.09 K, 296.5 kPa, w2 = 0.55 | 7.0377 ± 0.5
315.09 K, 1068.9 kPa, w2 = 0.6 | 27.4868 ± 0.67
315.1 K, 289.6 kPa, w2 = 0.6 | 6.6116 ± 0.48
315.1 K, 498.6 kPa, w2 = 0.6 | 11.6903 ± 0.51
315.1 K, 648.9 kPa, w2 = 0.6 | 15.5452 ± 0.55
315.1 K, 837.4 kPa, w2 = 0.6 | 20.6708 ± 0.59
315.1 K, 1341.8 kPa, w2 = 0.6 | 36.5492 ± 0.73
315.11 K, 380.8 kPa, w2 = 0.6 | 8.7915 ± 0.49
315.98 K, 1580.4 kPa, w2 = 0.5 | 50.2225 ± 0.93
316.02 K, 947.3 kPa, w2 = 0.4 | 28.0242 ± 0.74
316.02 K, 1201.7 kPa, w2 = 0.4 | 37.3297 ± 0.85
316.03 K, 251.6 kPa, w2 = 0.4 | 6.68246 ± 0.56
316.03 K, 331.4 kPa, w2 = 0.4 | 8.9013 ± 0.57
316.03 K, 434.8 kPa, w2 = 0.4 | 11.857 ± 0.59
316.03 K, 568 kPa, w2 = 0.4 | 15.7941 ± 0.62
316.03 K, 737 kPa, w2 = 0.4 | 21.0384 ± 0.67
316.03 K, 1496.5 kPa, w2 = 0.4 | 49.7241 ± 0.93
316.07 K, 1279.9 kPa, w2 = 0.5 | 37.6931 ± 0.83
316.09 K, 1628 kPa, w2 = 0.45 | 55.7253 ± 1
316.11 K, 1015.3 kPa, w2 = 0.5 | 28.294 ± 0.71
316.11 K, 1322.4 kPa, w2 = 0.45 | 41.8324 ± 0.91
316.12 K, 496.6 kPa, w2 = 0.45 | 13.2868 ± 0.61
316.12 K, 641.4 kPa, w2 = 0.45 | 17.6986 ± 0.64
316.12 K, 825.1 kPa, w2 = 0.45 | 23.5754 ± 0.7
316.12 K, 1051.5 kPa, w2 = 0.45 | 31.4039 ± 0.78
316.13 K, 382.7 kPa, w2 = 0.45 | 9.97465 ± 0.58
316.13 K, 614 kPa, w2 = 0.5 | 15.945 ± 0.59
316.13 K, 793.6 kPa, w2 = 0.5 | 21.2396 ± 0.64
316.14 K, 359.6 kPa, w2 = 0.5 | 8.98623 ± 0.54
316.14 K, 471.1 kPa, w2 = 0.5 | 11.9702 ± 0.56
319.94 K, 1816.9 kPa, w2 = 0.4 | 64.6378 ± 1.1
319.97 K, 1488.2 kPa, w2 = 0.4 | 48.5219 ± 0.98
319.98 K, 935.7 kPa, w2 = 0.4 | 27.3455 ± 0.72
319.98 K, 1189.8 kPa, w2 = 0.4 | 36.4256 ± 0.82
319.99 K, 326.1 kPa, w2 = 0.4 | 8.68561 ± 0.57
319.99 K, 428.1 kPa, w2 = 0.4 | 11.5696 ± 0.58
319.99 K, 559.5 kPa, w2 = 0.4 | 15.4113 ± 0.61
319.99 K, 726.9 kPa, w2 = 0.4 | 20.5286 ± 0.66
320 K, 1619.8 kPa, w2 = 0.5 | 49.4434 ± 0.88
320.03 K, 1304.5 kPa, w2 = 0.5 | 37.1152 ± 0.79
320.05 K, 1030.2 kPa, w2 = 0.5 | 27.8617 ± 0.68
320.07 K, 802.1 kPa, w2 = 0.5 | 20.9155 ± 0.61
320.08 K, 360.7 kPa, w2 = 0.5 | 8.84905 ± 0.52
320.08 K, 473.5 kPa, w2 = 0.5 | 11.7874 ± 0.54
320.08 K, 618.5 kPa, w2 = 0.5 | 15.7015 ± 0.57
320.08 K, 1320 kPa, w2 = 0.45 | 39.4284 ± 0.84
320.08 K, 1636.4 kPa, w2 = 0.45 | 52.5203 ± 0.93
320.09 K, 814.3 kPa, w2 = 0.45 | 22.2206 ± 0.65
320.09 K, 1044.1 kPa, w2 = 0.45 | 29.5994 ± 0.72
320.1 K, 367.3 kPa, w2 = 0.45 | 9.40149 ± 0.55
320.1 K, 481.7 kPa, w2 = 0.45 | 12.5232 ± 0.57
320.1 K, 628.6 kPa, w2 = 0.45 | 16.6813 ± 0.6
